Source: patent US4837149A, “Novel saframycin A derivatives and process for producing the same” (priority 1984, dated 1989)
In brackets after ≈: the same amount, converted by molar mass. Like-named read-outs stand apart in the source and are kept apart here.

Columns and labels:
[1] = tested on: Bacillus cereus; experiment: Antibacterial spectra in vitro, MIC on agar plates; format: cell-based; conditions: IFM No. 2058, nutrient agar, 37° C., 24 hours
[2] = tested on: Salmonella typhimurium; experiment: Antibacterial spectra in vitro, MIC on agar plates; format: cell-based; conditions: Salmonella enterica, IFM No. 3023, nutrient agar, 37° C., 24 hours
[3] = tested on: Mycobacterium phlei; experiment: Antibacterial spectra in vitro, MIC on agar plates; format: cell-based; conditions: Mycolicibacterium phlei; IFM No. 2052; glucose (0.5%) agar; 37° C., 24 hours
[4] = tested on: Ehrlich ascitic tumor cells; experiment: Survival of ICR mice inoculated with Ehrlich ascitic tumor cells; format: in vivo; conditions: for mice survived: 20 micrograms/mouse/day intraperitoneally for 7 days, from 24 hours after inoculation, 10 mice per group
Description: In another test, ICR mice (10 mice per group) were inoculated with Ehrlich ascitic tumor cells. Twenty-four hours after the inoculation the dose of 20 micrograms/mouse/day of saframycin Y3 or 20 micrograms/mouse/day of saframycin Yd-1 was administered intraperitoneally. The administration was continued for 7 days. […] When 5 micrograms/mouse/day of saframycin Y3 or 4 micrograms/mouse/day of Yd-1 were administered, 60-70% of the mice survived for 20 days or more.

[5] = tested on: Streptococcus salivarius; experiment: Antibacterial spectra in vitro, MIC on agar plates; format: cell-based; conditions: IFM No. 2010, glucose (0.5%) agar, 37° C., 24 hours
[6] = tested on: Rhodotorula glutinus; experiment: Antimicrobial (fungi) MIC on agar plates; format: cell-based; conditions: IFM No. 40057, Sabouraud's glucose (2%) agar, 48 hours
[7] = tested on: Serratia marcescens; experiment: Antibacterial spectra in vitro, MIC on agar plates; format: cell-based; conditions: IFM No. 3029, nutrient agar, 37° C., 24 hours
[8] = tested on: Pseudomonas aeruginosa; experiment: Antibacterial spectra in vitro, MIC on agar plates; format: cell-based; conditions: IFM No. 3011, nutrient agar, 37° C., 24 hours
Description: (§1) With respect to the antimicrobial activities of saframycins Y3 and Yd-1, the antibacterial spectra in vitro, as expressed by their minimum inhibitory concentrations (MIC), are shown in Table 2:
(§2) Medium: A=nutrient agar, B=glucose (0.5%) agar, C=Sabouraud's glucose (2%) agar.
(§3) All MIC-values shown in Table 2 are obtained from cultures on agar plates containing varying amounts of the antibiotic tested at temperatures of 37° C. after an incubation period of 24 hours (bacteria), 48 hours (fungi except candida albicans, 37° C., 48 hours, Trichophyton mentagrophytes.

[9] = tested on: Streptococcus pyogenes Cook; experiment: Antibacterial spectra in vitro, MIC on agar plates; format: cell-based; conditions: IFM No. 2003, glucose (0.5%) agar, 37° C., 24 hours
Description: as §1, §2, §3

[10] = tested on: Mycobacterium sp. 607; experiment: Antibacterial spectra in vitro, MIC on agar plates; format: cell-based; conditions: IFM No. 2051, glucose (0.5%) agar, 37° C., 24 hours
Description: as §1, §2, §3

[11] = tested on: Corynebacterium diphtheria; experiment: Antibacterial spectra in vitro, MIC on agar plates; format: cell-based; conditions: IFM No. 2056, glucose (0.5%) agar, 37° C., 24 hours
Description: as §1, §2, §3

[12] = tested on: Penicillium expansum; experiment: Antimicrobial (fungi) MIC on agar plates; format: cell-based; conditions: IFM No. 40618, Sabouraud's glucose (2%) agar, 48 hours
[13] = tested on: Klebsiella pneumoniae; experiment: Antibacterial spectra in vitro, MIC on agar plates; format: cell-based; conditions: IFM No. 3008, nutrient agar, 37° C., 24 hours
[14] = tested on: Streptococcus pyogenes 090 R; experiment: Antibacterial spectra in vitro, MIC on agar plates; format: cell-based
[15] = tested on: Mycobacterium avium; experiment: Antibacterial spectra in vitro, MIC on agar plates; format: cell-based; conditions: IFM No. 2054, glucose (0.5%) agar, 37° C., 24 hours
[16] = tested on: Brucella abortus; experiment: microbe, parasite or virus in culture; format: cell-based; conditions: 24 h
[17] = tested on: Staphylococcus aureus Smith; experiment: Antibacterial spectra in vitro, MIC on agar plates; format: cell-based; conditions: IFM No. 2018, nutrient agar, 37° C., 24 hours
[18] = tested on: Nocardia asteroides; experiment: Antibacterial spectra in vitro, MIC on agar plates; format: cell-based; conditions: IFM No. 0006, glucose (0.5%) agar, 37° C., 24 hours
[19] = tested on: Staphylococcus albus; experiment: Antibacterial spectra in vitro, MIC on agar plates; format: cell-based; conditions: IFM No. 2013, nutrient agar, 37° C., 24 hours
[20] = tested on: Streptococcus faecalis; experiment: Antibacterial spectra in vitro, MIC on agar plates; format: cell-based; conditions: Enterococcus faecalis; IFM No. 2001; glucose (0.5%) agar; 37° C., 24 hours
[21] = tested on: Corynebacterium xeriosis; experiment: Antibacterial spectra in vitro, MIC on agar plates; format: cell-based; conditions: IFM No. 2057, glucose (0.5%) agar, 37° C., 24 hours
[22] = tested on: Trichophyton mentagrophytes; experiment: Antimicrobial (fungi) MIC on agar plates; format: cell-based; conditions: IFM No. 40134, Sabouraud's glucose (2%) agar
[23] = tested on: Aspergillus oryzae; experiment: Antimicrobial (fungi) MIC on agar plates; format: cell-based; conditions: IFM No. 40601, Sabouraud's glucose (2%) agar, 48 hours
[24] = tested on: Sarcina lutea; experiment: Antibacterial spectra in vitro, MIC on agar plates; format: cell-based; conditions: Micrococcus luteus; IFM No. 2066; nutrient agar; 37° C., 24 hours
[25] = tested on: Escherichia coli F1; experiment: Antibacterial spectra in vitro, MIC on agar plates; format: cell-based; conditions: IFM No. 3002, nutrient agar, 37° C., 24 hours
[26] = tested on: Saccharomyces cerevisiae; experiment: Antimicrobial (fungi) MIC on agar plates; format: cell-based; conditions: IFM No. 40025, Sabouraud's glucose (2%) agar, 48 hours
[27] = tested on: Staphylococcus citreus; experiment: Antibacterial spectra in vitro, MIC on agar plates; format: cell-based; conditions: IFM No. 2025, nutrient agar, 37° C., 24 hours
[28] = tested on: Staphylococcus aureus 209 P; experiment: Antibacterial spectra in vitro, MIC on agar plates; format: cell-based; conditions: IFM No. 2014, nutrient agar, 37° C., 24 hours
[29] = tested on: Candida albicans 7N; experiment: Antimicrobial (fungi) MIC on agar plates; format: cell-based; conditions: IFM No. 40009, Sabouraud's glucose (2%) agar
[30] = tested on: mouse leukaemia L 1210; experiment: Cytotoxic effect in cell cultures of mouse leukaemia L 1210; format: cell-based; conditions: L1210, read-out: ED50 (cytotoxic effect)
[31] = tested on: Shigella dysenteria; experiment: Antibacterial spectra in vitro, MIC on agar plates; format: cell-based; conditions: IFM No. 3024, nutrient agar, 37° C., 24 hours
[32] = tested on: mouse leukemia L 1210; experiment: Effect against mouse leukemia L 1210 in BDF1 mice (US National Cancer Research Institute procedure); format: in vivo; conditions: for survival effect compared with critical level of effectiveness prescribed by the research institute: 10 micrograms/mouse/day intraperitoneally for one week; for survival effect [T/C×100]: 10 micrograms/mouse/day intraperitoneally for one week from 24 hours after transplantation
Text: In another test, the effect of saframycins Y3 and Yd-1 against mouse leukemia L 1210 was examined by using BDF1 mice according to the procedure as established by the US National Cancer Research Institute.

[33] = tested on: Aspergillus niger; experiment: Antimicrobial (fungi) MIC on agar plates; format: cell-based; conditions: IFM No. 40606, Sabouraud's glucose (2%) agar, 48 hours
[34] = tested on: Bacillus subtilis PCI 219; experiment: Antibacterial spectra in vitro, MIC on agar plates; format: cell-based; conditions: PCI219, IFM No. 2060, nutrient agar, 37° C., 24 hours
[35] = tested on: Lewis lung cancer; experiment: Effect against metastasis of Lewis lung cancer (foot pad inoculation, leg amputation); format: in vivo, BDF1 mice; conditions: 40 micrograms/mouse/day for 10 days i.p.; seven days after last administration; control: abundant metastasis
Description: In another test, the effect of saframycin Yd-1 against metastasis of Lewis lung cancer was determined in the following manner:
The foot pads of the left hind legs of BDF1 mice having a body weight of 20 g were subcutaneously inoculated with 1.5×10^5 Lewis lung cancer cells. After seven days the legs were amputated.
(§4) A physiological sodium chloride solution was administered intraperitoneally to the control group while saframycin Yd-1 was given at a dose of 40 micrograms/mouse/day for 10 days i.p. to the group to be treated. Seven days after the last administration, the mice were sacrificed and the spread of metastasis in the lungs was compared. […] In anther experiment, the effect against Lewis lung cancer was evaluated according to the guidelines of the USA Cancer Institute (R. L. Geran et al. Cancer Chemotherapy Reports, Part 3, Vol. 3, No. 2 (1972)).

[36] = tested on: Lewis lung cancer; experiment: Effect against Lewis lung cancer according to guidelines of the USA Cancer Institute; format: in vivo; conditions: 20 micrograms/mouse/day intraperitoneally for 10 days
Description: as §4

SMILES: COC1=C(C)C(=O)C2=C(C1=O)C1C3CC4=C(C(=O)C(OC)=C(C)C4=O)C(CNC(=O)C(C)N)N3C(C#N)C(C2)N1C (stereo not drawn) [Saframycin Y3]
- MIC [1]: 50 mg/L (≈ 88.7 µM)
- MIC [2]: 50 mg/L (≈ 88.7 µM)
- MIC [3]: 50 mg/L (≈ 88.7 µM)
- mice survived for 20 days or more ([4]; 5 micrograms/mouse/day): 60-70%
- mice survived [4]: all mice survived
- MIC [5]: 50 mg/L (≈ 88.7 µM)
- MIC [6]: > 100 mg/L
- MIC [7]: 50 mg/L (≈ 88.7 µM)
- MIC [8]: > 100 mg/L
- MIC [9]: < 0.001 mg/L
- MIC [10]: > 100 mg/L
- MIC [11]: < 0.001 mg/L
- MIC [12]: > 100 mg/L
- MIC [13]: 10 mg/L (≈ 17.7 µM)
- MIC ([14]; IFM No. 2006, glucose (0.5%) agar, 37° C., 24 hours, read-out: MIC): 0.1 mg/L (≈ 0.177 µM)
- MIC [15]: 50 mg/L (≈ 88.7 µM)
- MIC [16]: 1 mg/L (≈ 1.77 µM)
- MIC [17]: 0.1 mg/L (≈ 0.177 µM)
- MIC [18]: 50 mg/L (≈ 88.7 µM)
- MIC [19]: 1 mg/L (≈ 1.77 µM)
- MIC [20]: 10 mg/L (≈ 17.7 µM)
- MIC [21]: 1 mg/L (≈ 1.77 µM)
- MIC [22]: > 100 mg/L
- MIC [23]: > 100 mg/L
- MIC [24]: 1 mg/L (≈ 1.77 µM)
- MIC [25]: 50 mg/L (≈ 88.7 µM)
- MIC [26]: > 100 mg/L
- MIC [27]: 0.1 mg/L (≈ 0.177 µM)
- MIC [28]: 1 mg/L (≈ 1.77 µM)
- MIC [29]: > 100 mg/L
- IC50 [30]: 0.0016 mg/L (≈ 0.00284 µM)
- MIC [31]: 10 mg/L (≈ 17.7 µM)
- survival effect compared with critical level of effectiveness prescribed by the research institute [32]: exceed the critical level of effectiveness
- survival effect [T/C×100] [32]: 130%
- MIC [33]: > 100 mg/L
- MIC [34]: 10 mg/L (≈ 17.7 µM)

SMILES: CCC(N)C(=O)NCC1C2=C(CC3C4C5=C(CC(C(C#N)N13)N4C)C(=O)C(C)=C(OC)C5=O)C(=O)C(C)=C(OC)C2=O (stereo not drawn) [Saframycin Yd-1]
- MIC [1]: 50 mg/L (≈ 86.6 µM)
- MIC [2]: 50 mg/L (≈ 86.6 µM)
- MIC [3]: 50 mg/L (≈ 86.6 µM)
- mice survived for 20 days or more ([4]; 4 micrograms/mouse/day): 60-70%
- mice survived [4]: all mice survived
- MIC [5]: 50 mg/L (≈ 86.6 µM)
- MIC [6]: > 100 mg/L
- MIC [7]: 50 mg/L (≈ 86.6 µM)
- MIC [8]: > 100 mg/L
- MIC [9]: < 0.001 mg/L
- MIC [10]: > 100 mg/L
- MIC [11]: < 0.001 mg/L
- MIC [12]: > 100 mg/L
- MIC [13]: 10 mg/L (≈ 17.3 µM)
- MIC ([14]; 24 h): 0.01 mg/L (≈ 0.0173 µM)
- MIC [15]: 50 mg/L (≈ 86.6 µM)
- MIC [16]: 1 mg/L (≈ 1.73 µM)
- MIC [17]: 1 mg/L (≈ 1.73 µM)
- MIC [18]: 1 mg/L (≈ 1.73 µM)
- MIC [19]: 10 mg/L (≈ 17.3 µM)
- MIC [20]: 10 mg/L (≈ 17.3 µM)
- MIC [21]: 1 mg/L (≈ 1.73 µM)
- MIC [22]: > 100 mg/L
- spread of metastasis in the lungs [35]: metastasis was scarcely observed
- MIC [23]: > 100 mg/L
- MIC [24]: 1 mg/L (≈ 1.73 µM)
- MIC [25]: 50 mg/L (≈ 86.6 µM)
- MIC [26]: > 100 mg/L
- MIC [27]: 0.1 mg/L (≈ 0.173 µM)
- MIC [28]: 1 mg/L (≈ 1.73 µM)
- MIC [29]: > 100 mg/L
- IC50 [30]: 0.002 mg/L (≈ 0.00346 µM)
- MIC [31]: 10 mg/L (≈ 17.3 µM)
- survival effect compared with critical level of effectiveness prescribed by the research institute [32]: exceed the critical level of effectiveness
- survival effect [T/C×100] [32]: 140%
- MIC [33]: > 100 mg/L
- MIC [34]: 1 mg/L (≈ 1.73 µM)
- T/C×100 [36]: ≥ 140%
- preventing effect against cancer metastasis as compared to saframycin A [36]: higher preventing effect
